Laboratory results: US20230085307A1, “PYRIDAZINONE COMPOUND AND HERBICIDE” (NISSAN CHEMICAL CORPORATION, priority 2019, published 2023)

Columns and labels:
velvetleaf [1] = assay: Test Example 5: herbicidal effect by foliage application, plastic box (Table 20, symbol M); assay type: in vivo, velvetleaf (Abutilon theophrasti); conditions: foliage application, 320 g/ha, three weeks after application
Outline: (§1)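 Plants sown in sterilized diluvial soil and grown 14 days in a greenhouse at 25° C to 30° C, then sprayed on the foliage with the compound's emulsion diluted in water to a predetermined herbicide amount. Injury to weeds and crops scored three weeks after application on a visual rating scale.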

green foxtail [2] = assay: Test Example 5: herbicidal effect by foliage application, plastic box (Table 20, symbol G); assay type: in vivo, green foxtail (Setaria viridis); conditions: foliage application, 320 g/ha, three weeks after application
Outline: as §1

barnyard grass [3] = assay: Test Example 4: herbicidal effect by soil treatment (Table 19, symbol H); assay type: in vivo, barnyard grass (Echinochloa crus-galli); conditions: amount of applied herbicide 320 g/ha
Outline: (§2)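 Three weeks of greenhouse growth at 25° C. to 30° C. followed a uniform surface spray of water-diluted emulsion at a predetermined herbicide amount. Seeds had been sown beforehand under about 1.5 cm of sterilized diluvial soil. Grading followed criteria set out in an earlier test.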

late watergrass = assay: Test Example 1: herbicidal activity, application before weed generation under submerged conditions (Table 16, symbol A); assay type: in vivo, late watergrass (Echinochloa oryzicola); conditions: amount of applied herbicide 320 g/ha
Outline: (§3)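 Submerged Wagner pots (alluvial soil, 4 cm water) sown with weed seeds and planted with 2.5-leaf rice seedlings; emulsifiable concentrate diluted in water applied to water surface on sowing day. Held in greenhouse at 25-30 °C; injury scored 0-5 by herbicidal rate after three weeks.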

persian speedwell [4] = assay: Test Example 5: herbicidal effect by foliage application, plastic box (Table 20, symbol R); assay type: in vivo, Persian speedwell (Veronica persica); conditions: foliage application, 320 g/ha, three weeks after application
Outline: as §1

redroot pigweed [5] = assay: Test Example 5: herbicidal effect by foliage application, plastic box (Table 20, symbol N); assay type: in vivo, redroot pigweed (Amaranthus retroflexus); conditions: foliage application, 320 g/ha, three weeks after application
Outline: as §1

velvetleaf [6] = assay: Test Example 4: herbicidal effect by soil treatment (Table 19, symbol M); assay type: in vivo, velvetleaf (Abutilon theophrasti); conditions: amount of applied herbicide 320 g/ha
Outline: as §2

barnyard grass [7] = assay: Test Example 3: herbicidal effect by foliage application, Wagner pot (Table 18, symbol H); assay type: in vivo, barnyard grass (Echinochloa crus-galli); conditions: 320 g/ha
Outline: (§4)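 Plants were sown in alluvial soil held under 0.1–0.5 cm standing water and grown 14 days in a greenhouse at 25–30 °C. An emulsifiable formulation, water-diluted to the set dose, was then sprayed onto the foliage, and effects were scored three weeks later using previously defined criteria.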

rice flat sedge = assay: Test Example 3: herbicidal effect by foliage application, Wagner pot (Table 18, symbol E); assay type: in vivo, rice flat sedge (Cyperus iria); conditions: 320 g/ha
Outline: as §4

windgrass [8] = assay: Test Example 5: herbicidal effect by foliage application, plastic box (Table 20, symbol L); assay type: in vivo, windgrass (Apera spica-venti); conditions: foliage application, 320 g/ha, three weeks after application
Outline: as §1

false cleavers [9] = assay: Test Example 5: herbicidal effect by foliage application, plastic box (Table 20, symbol Q); assay type: in vivo, false cleavers (Galium spurium); conditions: foliage application, 320 g/ha, three weeks after application
Outline: as §1

blackgrass [10] = assay: Test Example 5: herbicidal effect by foliage application, plastic box (Table 20, symbol J); assay type: in vivo, blackgrass (Alopecurus myosuroides); conditions: foliage application, 320 g/ha, three weeks after application
Outline: as §1

redroot pigweed [11] = assay: Test Example 4: herbicidal effect by soil treatment (Table 19, symbol N); assay type: in vivo, redroot pigweed (Amaranthus retroflexus); conditions: amount of applied herbicide 320 g/ha
Outline: as §2

blackgrass [12] = assay: Test Example 4: herbicidal effect by soil treatment (Table 19, symbol J); assay type: in vivo, blackgrass (Alopecurus myosuroides); conditions: amount of applied herbicide 320 g/ha
Outline: as §2

green foxtail [13] = assay: Test Example 4: herbicidal effect by soil treatment (Table 19, symbol G); assay type: in vivo, green foxtail (Setaria viridis); conditions: amount of applied herbicide 320 g/ha
Outline: as §2

oval-leafed pondweed = assay: Test Example 1: herbicidal activity, application before weed generation under submerged conditions (Table 16, symbol C); assay type: in vivo, oval-leafed pondweed (Monochoria vaginalis); conditions: amount of applied herbicide 320 g/ha
Outline: as §3

barnyard grass [14] = assay: Test Example 5: herbicidal effect by foliage application, plastic box (Table 20, symbol H); assay type: in vivo, barnyard grass (Echinochloa crus-galli); conditions: foliage application, 320 g/ha, three weeks after application
Outline: as §1

lambsquarters [15] = assay: Test Example 5: herbicidal effect by foliage application, plastic box (Table 20, symbol O); assay type: in vivo, lambsquarters (Chenopodium album); conditions: foliage application, 320 g/ha, three weeks after application
Outline: as §1

Japanese bulrush = assay: Test Example 1: herbicidal activity, application before weed generation under submerged conditions (Table 16, symbol B); assay type: in vivo, Japanese bulrush (Schoenoplectus juncoides); conditions: amount of applied herbicide 320 g/ha
Outline: as §3

persian speedwell [16] = assay: Test Example 4: herbicidal effect by soil treatment (Table 19, symbol R); assay type: in vivo, Persian speedwell (Veronica persica); conditions: amount of applied herbicide 320 g/ha
Outline: as §2

chickweed [17] = assay: Test Example 5: herbicidal effect by foliage application, plastic box (Table 20, symbol P); assay type: in vivo, common chickweed (Stellaria media); conditions: foliage application, 320 g/ha, three weeks after application
Outline: as §1

southern crabgrass [18] = assay: Test Example 4: herbicidal effect by soil treatment (Table 19, symbol F); assay type: in vivo, southern crabgrass (Digitaria ciliaris); conditions: amount of applied herbicide 320 g/ha
Outline: as §2

chickweed [19] = assay: Test Example 4: herbicidal effect by soil treatment (Table 19, symbol P); assay type: in vivo, common chickweed (Stellaria media); conditions: amount of applied herbicide 320 g/ha
Outline: as §2

southern crabgrass [20] = assay: Test Example 5: herbicidal effect by foliage application, plastic box (Table 20, symbol F); assay type: in vivo, southern crabgrass (Digitaria ciliaris); conditions: foliage application, 320 g/ha, three weeks after application
Outline: as §1

wild oat [21] = assay: Test Example 5: herbicidal effect by foliage application, plastic box (Table 20, symbol I); assay type: in vivo, wild oat (Avena fatua); conditions: foliage application, 320 g/ha, three weeks after application
Outline: as §1

wild oat [22] = assay: Test Example 4: herbicidal effect by soil treatment (Table 19, symbol I); assay type: in vivo, wild oat (Avena fatua); conditions: amount of applied herbicide 320 g/ha
Outline: as §2

Italian ryegrass [23] = assay: Test Example 4: herbicidal effect by soil treatment (Table 19, symbol K); assay type: in vivo, Italian ryegrass (Lolium multiflorum); conditions: amount of applied herbicide 320 g/ha
Outline: as §2

windgrass [24] = assay: Test Example 4: herbicidal effect by soil treatment (Table 19, symbol L); assay type: in vivo, windgrass (Apera spica-venti); conditions: amount of applied herbicide 320 g/ha
Outline: as §2

lambsquarters [25] = assay: Test Example 4: herbicidal effect by soil treatment (Table 19, symbol O); assay type: in vivo, lambsquarters (Chenopodium album); conditions: amount of applied herbicide 320 g/ha
Outline: as §2

false cleavers [26] = assay: Test Example 4: herbicidal effect by soil treatment (Table 19, symbol Q); assay type: in vivo, false cleavers (Galium spurium); conditions: amount of applied herbicide 320 g/ha
Outline: as §2

Chinese sprangletop = assay: Test Example 3: herbicidal effect by foliage application, Wagner pot (Table 18, symbol D); assay type: in vivo, chinese sprangletop (Leptochloa chinensis); conditions: 320 g/ha
Outline: as §4

Italian ryegrass [27] = assay: Test Example 5: herbicidal effect by foliage application, plastic box (Table 20, symbol K); assay type: in vivo, Italian ryegrass (Lolium multiflorum); conditions: foliage application, 320 g/ha, three weeks after application
Outline: as §1

Cc1ccc2c(-c3c(O)c(C)nn(C)c3=O)c(-c3ccc4c(c3)OCCO4)sc2c1 [3-059]
M: velvetleaf, herbicidal effect grade (velvetleaf [1]): 0 (Herbicidal rate of 5% or less (almost no effect))
G: green foxtail, herbicidal effect grade (green foxtail [2]): 0 (Herbicidal rate of 5% or less (almost no effect))
H: barnyard grass, herbicidal effect grade (barnyard grass [3]): 0 (Herbicidal rate of 5% or less (almost no effect))
Herbicidal effect, A: late watergrass (late watergrass): 2 (Herbicidal rate of 20% or more and less than 40%)
R: persian speedwell, herbicidal effect grade (persian speedwell [4]): 5 (Herbicidal rate of 90% or more (almost completely withered))
N: redroot pigweed, herbicidal effect grade (redroot pigweed [5]): 0 (Herbicidal rate of 5% or less (almost no effect))
M: velvetleaf, herbicidal effect grade (velvetleaf [6]): 0 (Herbicidal rate of 5% or less (almost no effect))
herbicidal effect on barnyard grass (H) (barnyard grass [7]): 4 (Herbicidal rate of 70% or more and less than 90%)
herbicidal effect on rice flat sedge (E) (rice flat sedge): 4 (Herbicidal rate of 70% or more and less than 90%)
L: windgrass, herbicidal effect grade (windgrass [8]): 0 (Herbicidal rate of 5% or less (almost no effect))
Q: false cleavers, herbicidal effect grade (false cleavers [9]): 2 (Herbicidal rate of 20% or more and less than 40%)
J: blackgrass, herbicidal effect grade (blackgrass [10]): 0 (Herbicidal rate of 5% or less (almost no effect))
N: redroot pigweed, herbicidal effect grade (redroot pigweed [11]): 0 (Herbicidal rate of 5% or less (almost no effect))
J: blackgrass, herbicidal effect grade (blackgrass [12]): 0 (Herbicidal rate of 5% or less (almost no effect))
G: green foxtail, herbicidal effect grade (green foxtail [13]): 0 (Herbicidal rate of 5% or less (almost no effect))
Herbicidal effect, C: oval-leafed pondweed (oval-leafed pondweed): 2 (Herbicidal rate of 20% or more and less than 40%)
H: barnyard grass, herbicidal effect grade (barnyard grass [14]): 0 (Herbicidal rate of 5% or less (almost no effect))
O: lambsquarters, herbicidal effect grade (lambsquarters [15]): 0 (Herbicidal rate of 5% or less (almost no effect))
Herbicidal effect, B: Japanese bulrush (Japanese bulrush): 1 (Herbicidal rate of 5% or more and less than 20%)
R: persian speedwell, herbicidal effect grade (persian speedwell [16]): 5 (Herbicidal rate of 90% or more (almost completely withered))
P: chickweed, herbicidal effect grade (chickweed [17]): 5 (Herbicidal rate of 90% or more (almost completely withered))
F: southern crabgrass, herbicidal effect grade (southern crabgrass [18]): 0 (Herbicidal rate of 5% or less (almost no effect))
P: chickweed, herbicidal effect grade (chickweed [19]): 0 (Herbicidal rate of 5% or less (almost no effect))
F: southern crabgrass, herbicidal effect grade (southern crabgrass [20]): 0 (Herbicidal rate of 5% or less (almost no effect))
I: wild oat, herbicidal effect grade (wild oat [21]): 0 (Herbicidal rate of 5% or less (almost no effect))
I: wild oat, herbicidal effect grade (wild oat [22]): 0 (Herbicidal rate of 5% or less (almost no effect))
K: Italian ryegrass, herbicidal effect grade (Italian ryegrass [23]): 0 (Herbicidal rate of 5% or less (almost no effect))
L: windgrass, herbicidal effect grade (windgrass [24]): 0 (Herbicidal rate of 5% or less (almost no effect))
O: lambsquarters, herbicidal effect grade (lambsquarters [25]): 0 (Herbicidal rate of 5% or less (almost no effect))
Q: false cleavers, herbicidal effect grade (false cleavers [26]): 0 (Herbicidal rate of 5% or less (almost no effect))
herbicidal effect on Chinese sprangletop (D) (Chinese sprangletop): 0 (Herbicidal rate of 5% or less (almost no effect))
K: Italian ryegrass, herbicidal effect grade (Italian ryegrass [27]): 4 (Herbicidal rate of 70% or more and less than 90%)
